GI50, TGI and outcome data for 38 compounds are collected here from PubChem BioAssay (NCI).

Values joined by “and” are separate entries in the source; they are usually repeats but may differ in a detail not shown here. Identical values can stand only once.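 1) Cells in 96-well plates. 2) Compound, 48 h, 5 concentrations. 3) Linear interpolation between surrounding doses. 4) Unreached endpoint = highest concentration. GI50 is the concentration that inhibits growth by half. TGI: concentration producing complete growth inhibition.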 Active and inactive are the calls of the source. Cut-off read from the data, not from the text of the source: active = GI50 below about 0.43 µM; inactive = the rest. Where only a bound is given, the exact number is not on record here.

This assay relates to MDA-MB-468 breast. Kind of assay: NCI-60 cell line screen, 48 h.
In the case of `C[C@H]1/C(=C/C(=O)OCCN(C)C)CC[C@H]2[C@H]1C(=O)C[C@H]1C(C)(C)[C@@H](O)CC[C@]21C`, the GI50 is more than 100 µM and the TGI is more than 100 µM.

`O=C1/C=C/[C@@H](O)[C@@H]2C[C@@H](O)C[C@H]2/C=C/CCC[C@H](CCc2cccc3ccccc23)O1`: the GI50 is 0.0253 µM and the TGI was 0.0867 µM.

As for `O=c1oc2ccc(I)cc2c(=O)n1-c1ccc(F)cc1F`, the GI50 is 2.23 µM and the TGI came to 5.69 µM.

`O=C(CC1(O)C(=O)N(Cc2ccccc2)c2ccc(Cl)cc21)c1ccc(C(=O)NCC2CCC3(CC2)OOC2(CCCCC2)OO3)cc1` (stereo not given): the GI50 is 1.27 µM and the TGI is 4.26 µM.

For the compound `CC/C=C\C[C@H](F)C/C=C1/C(=O)C=C[C@@H]1C/C=C\CCCC(=O)OC`, the GI50 was 5.26 µM and the TGI was 17.2 µM.

For the compound `CC(=O)/C(=C/c1ccccc1)C(=O)CC(C)C`, the GI50 is 11.1 µM and the TGI is 28 µM.

Regarding `Cn1c(=O)c(Oc2ccc(F)cc2F)cc2cnc(NC(C)(C)CO)nc21`, the GI50 is more than 25 µM and the TGI was more than 25 µM.

As to `CCCCCCCCCCCCCCCCCc1nccn1CCOCCO`, the outcome was inactive.

As for `Cc1ccc(Nc2nccc(N(C)c3ccc4c(C)n(C)nc4c3)n2)cc1S(N)(=O)=O`, the GI50 was 1.77 µM and 2.37 µM and 2.2 µM; the TGI was > 100 µM and > 10 µM and 45.2 µM.

Take `Cc1ccc2oc(=O)cc(/C(=C3/C=CC=N3)c3ccc[nH]3)c2c1`: the GI50 is 0.243 µM and the TGI was 1.02 µM.

For the compound `CC1CCN(Cc2ccc(NC(=O)c3cc4ccc5cccnc5c4[nH]3)cc2)CC1`, the GI50 was 2.61 µM and the TGI turned out to be 16.3 µM.

With `CC(C)(C)Nc1nc2c(OCCc3ccccc3)cccn2c1-c1cccc(Oc2ccccc2)c1`, the GI50 is 2.2 µM and the TGI came to 6.75 µM.

For the compound `CSc1c(C2=C(c3cn(C)c4ccccc34)C(=O)NC2=O)c2ccccc2n1C`, the GI50 was 0.562 µM and the TGI was more than 25 µM.

For `COc1ccc(C=Nc2c(C(=O)Nc3cccc(Cl)c3C)sc3nc(C)c(C(=O)/C=C/c4ccc(OC)cc4)cc23)cc1`, the GI50 was 0.2 µM and the TGI came out at 2.2 µM.

With `Nc1c(C(=O)Nc2ccccc2)sc2nc3c(cc12)CCCCC3`, the GI50 was 0.254 µM and the TGI turned out to be 0.946 µM.

In the case of `C=C1CC2(CC(c3ccccc3Cl)OC(c3ccccc3Cl)C2)OC1=O` (stereo not given), the GI50 was 1.75 µM and the TGI came out at 3.43 µM.

As for `O=C(CCl)NCCNc1nccc(Nc2ccc(S(=O)(=O)Nc3ccccn3)cc2)n1`, the GI50 was 1.05 µM and the TGI was determined as 4.53 µM.

With `CCCCCCCCCCCCCCCC1=NCCN1`, the GI50 is 2.22 µM and the TGI was 4.07 µM.

On to `C=C1C(=O)O[C@H]2[C@H]1CC/C(COC(=O)NCc1c[nH]c3ccccc13)=C\CC[C@@]1(C)O[C@@H]21`, for which the GI50 was 0.82 µM and the TGI amounted to 3.58 µM.

In the case of `CCCc1n(Cc2ccc3ccccc3c2)cc[n+]1Cc1ccc2ccccc2c1`, the GI50 is 0.277 µM and the TGI was 0.98 µM.

As to `Cc1c(-c2ccc(C3CCCCC3)cc2)nc2ccc(F)cc2c1C(=O)O`, the GI50 is 19.1 µM and the TGI was more than 100 µM.

For `NC(=NCc1ccccc1)C(N=Nc1ccccc1)C(=O)NCc1ccccc1` (stereo not given), the GI50 was 11.5 µM and the TGI amounted to 26.4 µM.

For `Cn1ccnc1C(=O)/C=C/c1ccc(NC(=O)Nc2ccccc2)cc1`, the GI50 is 11.4 µM and the TGI was 27.5 µM.

With `COc1cc(C2CC(c3cccc(Nc4ccnc5cc(Cl)ccc45)c3)=NN2c2ccc(Cl)cc2)cc(OC)c1OC` (stereo not given), the GI50 is 6.29 µM and the TGI was more than 100 µM.

Turning to `Oc1ccc(Nc2ccc3ccccc3c2)cc1`, the GI50 is 8.05 µM and the TGI turned out to be 26.7 µM.

Take `O=C(O)[C@H](Cc1c[nH]c2ccccc12)N1C(=O)c2ccccc2C1=O`: the GI50 was more than 100 µM and the TGI is more than 100 µM.

Regarding `O=S(=O)(CCN1CCOCC1)Nc1cc(-c2ccc3ncnc(Nc4ccc(F)c(Cl)c4)c3c2)cnc1Cl`, the GI50 is 0.198 µM and the TGI came to 1.56 µM.

`COc1cc2c(c(OC)c1OC)-c1ccc(O)cc1[C@@H](NC(C)=O)CC2`: the GI50 is 0.0244 µM and the TGI was found to be 0.0684 µM.

In the case of `CCCCN1CCCC[C@@H]1C(=O)N[C@H](C(=O)N(C)[C@H](C[C@@H](OC(C)=O)c1nc(C(=O)NC2CCC(C(=O)OC)CC2)cs1)C(C)C)C(C)C` (stereo not given in full), the GI50 is 0.707 µM and the TGI is 8.18 µM.

Turning to `O=C1/C(=C/c2ccccc2)CN(C(=O)C(Cl)Cl)C/C1=C\c1ccccc1`, the GI50 is 0.342 µM and the TGI stood at 1.38 µM.

On to `COC1C(O)CC(OC2CC(OC3CC(O[C@@H]4C(=O)c5c(cc6cc(OC7CC(OC8CC(O)C(O)C(C)O8)C(O)C(C)O7)c(C)c(O)c6c5O)CC4[C@H](OC)C(=O)O)OC(C)C3O)OC(C)C2O)OC1C` (stereo not given in full), for which the GI50 was 2.59 µM and the TGI is 12.4 µM.

Consider `COc1ccc(/C=C2\CN(C(=O)C(Cl)Cl)C/C(=C\c3ccc(OC)cc3)C2=O)cc1`, for which the GI50 was 1.04 µM and the TGI came out at 2.74 µM.

For the compound `CN(C)CCCN(CCC1CCCCC1)CCC1CCCCC1`, the GI50 is 1.46 µM and the TGI turned out to be 3.07 µM.

Take `COc1ccc2c(c1)c(-c1nc(-c3c[nH]c4ncccc34)cs1)cn2CCCN1CCCCC1`: the GI50 is 1.86 µM and the TGI was 3.56 µM.

`COc1cc(OC)cc(-c2ccc(-c3ccc(C(=N)N)cn3)o2)c1`: the GI50 was 1.51 µM and the TGI amounted to 3.1 µM.

Regarding `CCCCOC(=O)c1ccc(N)cc1`, the GI50 was 84.6 µM and the TGI was more than 100 µM.

In the case of `CCCCC(CCCCCC(CCCC)NCc1ccc2c(c1)OCO2)NCc1ccc2c(c1)OCO2` (stereo not given), the GI50 was 0.48 µM and the TGI turned out to be 0.981 µM.

As to `CCN1CCC(Nc2ccnc3cc(Cl)ccc23)CC1`, the GI50 is 13.3 µM and the TGI is 32 µM.
